# Assay results as given in patent US7973047B2, “Beta-Secretase modulators and methods of use” (Amgen Inc., priority 2010, dated 2011).
# Read-outs that look alike come from different tables or passages of the source.
# Assays:
# [1] = biological target: BACE (Homo sapiens, UniProt P56817); assay: In vitro enzymatic BACE FRET (fluorescence resonance energy transfer) assay; type: biochemical; settings: BACE enzyme 0.2 nM, FRET substrate 50 nM, acetate buffer pH 4.2
# Description: In Vitro Enzymatic BACE FRET (Fluorescence Resonance Energy Transfer) Assay
# Assay buffer is 0.05 M acetate, pH 4.2, 10% DMSO final, 100 uM genapol (which is a nonionic detergent, below it's Critical Micelle Concentration). Enzyme (0.2 nM) is pre-incubated for one hour with inhibitors added in 1 uL of DMSO. Then the assay is started by the addition of FRET substrate (50 nM) and incubated for one hour. The FRET assay is terminated with by addition of Tris buffer, which raises the pH to neutrality, and the fluorescence is determined. The FRET substrate is a peptide with commercially available fluorophore and quencher, on opposite sides of the BACE cleavage site. Proteolytic cleavage of the FRET substrate releases quenching of fluorescence (excitation 488 nm and emission […]).
# [2] = tested on: Aβ40 in conditioned medium of cells stably expressing Amyloid Precursor Protein (APP); assay: BACE cell-based assay: Aβ40 in conditioned medium by sandwich ELISA
# Outline: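 APP-stable cells grown 24 h in DMEM/10% FBS, then exposed to compounds for 24 h in a 10-point dose series starting at 100 or 10 μM, 0.1% DMSO final. Medium Aβ40 measured by pAb40/biotinylated 6E10 sandwich ELISA with Europium time-resolved fluorescence; IC50 from percent inhibition.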
# [3] = cells stably expressing APP, 24 h incubation with compound, Aβ40 in supernatant by sandwich ELISA, read-out: IC50 values in the cell-based assay (inhibition or reduction of Aβ40)
# [4] = cell based assay data, Table 4, unit inferred, read-out: Cell Assay
# [5] = cell based assay data of Table 4, unit inferred, read-out: Cell Assay
# Sequence of BACE (P56817 46-501, species assumed): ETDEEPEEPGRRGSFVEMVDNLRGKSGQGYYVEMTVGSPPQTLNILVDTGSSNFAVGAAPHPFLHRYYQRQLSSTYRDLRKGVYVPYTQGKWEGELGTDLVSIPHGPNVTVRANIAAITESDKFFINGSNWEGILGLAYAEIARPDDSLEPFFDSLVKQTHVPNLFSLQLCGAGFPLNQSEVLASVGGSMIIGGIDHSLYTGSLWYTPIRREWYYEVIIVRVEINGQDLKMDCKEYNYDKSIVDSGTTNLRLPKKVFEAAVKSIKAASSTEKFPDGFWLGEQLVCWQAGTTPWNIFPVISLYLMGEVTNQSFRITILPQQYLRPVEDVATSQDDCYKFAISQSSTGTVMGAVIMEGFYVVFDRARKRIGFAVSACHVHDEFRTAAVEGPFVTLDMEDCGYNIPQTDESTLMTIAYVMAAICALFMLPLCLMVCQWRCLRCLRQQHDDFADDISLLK
SMILES,IC50 [1],"IC50 [2, 4]",other results
CC(=O)N[C@@H](Cc1ccccc1)[C@H](O)CN[C@H]1CC2(CCC2)Oc2ccc(N3CCCC3)cc21 [Example 264],≤ 5 µM,–,–
"C=CC[C@H](NC(C)=O)[C@H](O)CN[C@H]1CC2(CCC2)Oc2ncc(CC(C)(C)C)cc21 [Example 736, N-((1S)-1-((1R)-2-(((4′S)-6′-(2,2-dimethylpropyl)-3′,4′-dihydrospiro[cyclobutane-1,2′-pyrano[2,3-b]pyridin]-4′-yl)amino)-1-hydroxyethyl)-3-buten-1-yl)acetamide]",≤ 5 µM,34 nM,–
CC(=O)N[C@@H](Cc1cccc(Cl)c1)[C@H](O)CN[C@H]1CC(C)(C)Oc2ccc(Br)cc21 [Example 182],≤ 5 µM,–,–
"CC(=O)N[C@@H](Cc1cccc(F)c1)[C@H](O)CN[C@H]1CC2(CCC2)Oc2c1cc(CC(C)(C)C)nc2OC(C)C [Example 610, N-((1S,2R)-3-(((4′S)-6′-(2,2-dimethylpropyl)-8′-((1-methylethyl)oxy)-3′,4′-dihydrospiro[cyclobutane-1,2′-pyrano[2,3-c]pyridin]-4′-yl)amino)-1-((3-fluorophenyl)methyl)-2-hydroxypropyl)acetamide]",≤ 5 µM,–,"IC50 [2, 5]: 17.2 nM"
CC(=O)N[C@@H](Cc1ccc(Cl)cc1)[C@H](O)CN[C@H]1CC2(CCC2)Oc2ncc(C(O)C(C)C(F)(F)F)cc21 (some centres unmarked) [compound 864],–,≥ 10000 nM,–
CC(=O)N[C@@H](Cc1cccc(F)c1)[C@H](O)CN[C@H]1CC2(CCC2)Oc2ncc(CC(C)(C)C#N)cc21 [compound 651],–,–,"IC50 [2, 5]: 4.24 nM"
CC(=O)N[C@@H](Cc1ccccc1)[C@H](O)CN[C@H]1CC2(CCC2)Oc2ncc(CC(C)(C)C(F)F)cc21 [compound 652],–,–,"IC50 [2, 5]: 7.84 nM"
CC(=O)N[C@@H](Cc1cc(F)cc(Cl)c1)[C@H](O)CN[C@H]1CC2(CCC2)Oc2ncc(CC(C)C)cc21 [compound 847],–,4.27 nM,–

# More lines, main results first:
IC50 [1],"IC50 [2, 4]",SMILES,other results
≤ 5 µM,–,"CC(=O)N[C@@H](Cc1ccccc1)[C@H](O)CN[C@H]1CC2(CCC2)Oc2ncc(CC(F)(F)F)cc21 [Example 512, N-((1S,2R)-2-hydroxy-1-(phenylmethyl)-3-(((4′S)-6′-(2,2,2-trifluoroethyl)-3′,4′-dihydrospiro[cyclobutane-1,2′-pyrano[2,3-b]pyridin]-4′-yl)amino)propyl)acetamide]","IC50 [2, 3]: ≤ 5000 nM"
≤ 5 µM,–,CC(=O)N[C@@H](Cc1ccccc1)[C@H](O)CN[C@H]1CC2(CCC2)Oc2ccc(N3CCOC[C@@H]3C)cc21 [Example 139],"IC50 [2, 3]: ≤ 5000 nM"
≤ 5 µM,–,CC(=O)N[C@@H](Cc1ccccc1)[C@H](O)CN[C@H]1CC2(CCC2)Oc2ccc(N3C[C@@H]4C[C@H]3CO4)cc21 [Example 388],"IC50 [2, 3]: ≤ 5000 nM"
≤ 5 µM,–,COCC(=O)N[C@@H](Cc1cccc(Cl)c1)[C@H](O)CN[C@H]1CC(C)(C)Oc2ccc(Br)cc21 [Example 180],–
–,5.14 nM,CC(=O)N[C@@H](Cc1cc(F)cc(NC2CCOCC2)c1)[C@H](O)CN[C@H]1CC2(CCC2)Oc2ncc(CC(C)(C)C)cc21 [compound 805],–
–,200 nM,CC(=O)N[C@@H](Cc1cc(F)cc(N(C)C)c1)[C@H](O)CN[C@H]1CC(C)(C)Oc2c1cc(CC(C)(C)C)nc2N(C)C [compound 756],–
–,13.8 nM,CC(=O)N[C@@H](Cc1ccccc1)[C@H](O)CN[C@H]1CC2(CCC2)Oc2c1cc(CC(C)(C)C)nc2Cl [compound 753],–
